Source: patent US12433876B2, “Septin inhibitors for treatment of cancers” (UNIVERSITY OF ROCHESTER, priority 2019, dated 2025)
Where “and” joins values, the source holds several entries; their conditions need not be identical. Identical values can stand only once.

What was measured:
[1] = system: HER2; experiment: Immunoblot of HER2 expression, pancreatic and breast cancer cells; type: cell-based
[2] = system: endometrial (ECC-1 and KLE) and ovarian (HCH-1, OVCAR-3, and SKOV-3) cancer cell lines; experiment: MTS cell viability, gynecologic cancer cell line panel; type: cell-based
Procedure: Cell lines, Culture, and Reagents. Cells were maintained in either DMEM (SKOV-3, KLE, OVCAR-3, OVCAR8-C5 and IGROV-1) or RPMI-1640 (ECC-1 and HCH-1), supplemented with 10% fetal calf serum (or 20% for OVCAR-3), penicillin (100 units/mL), and streptomycin (100 μg/mL) at 37° C. with 5% CO2 in a humidified incubator. Antibodies were purchased from Abcam (septin-2; ab179436) and Cell Signaling Technology; ERK (9102), p-ERK (4370), -actin (3700), u-Tubulin (2144), EGFR (4267) and HER2 (4290). FCF was purchased from Abcam. All other chemicals were from Sigma Aldrich. Synthesis of Derivaties. […] The reaction was monitored using thin-layer chromatography plates with DCM-MeOH or pure ethyl acetate as eluent. Spots were monitored in a UV chamber. The reaction mixture, upon completion of the reaction, was poured into wet ice mixture and triturated, then the separated solid was filtered by vacuum. The product was washed with hexane, followed by diethyl ether, and was dried under vacuum. The compounds were characterized by spectrophotometric techniques. Quantitative Real-Time PCR. The indicated cell lines were transfected with siRNA targeting septin-2 or non-targeting control siRNA (Santa Cruz Biotechnology: sc-37007 or sc-40936) using Lipofectamine 3000 (Invitrogen). Tri reagent and Direct-zol kit (Zymo Research) were used to lyse and isolate total RNA. Reverse transcription was performed using iScript cDNA synthesis kit (BioRad), both following the manufacturer's recommendations. Quantitative real-time PCR was conducted using QuantStudio 12 K Flex Real-Time PCR System (ABI) and the Taqman Gene Expression Assay (ABI) consisting of the FAM-labeled probes as follows: SEPT2 (Hs01565417_ml); WFDC2 (Hs00899484_ml); TBP (Hs00427620_ml) or B2M (Hs00187842_ml), which was used as reference for normalization. Cell Viability, Proliferation and Apoptosis Assay. Cell viability, proliferation, and cellular apoptosis were measured using the MTS (Promega), BrdU cell proliferation (Cell Signaling Technology), and Caspase-Glo 3/7 apoptosis detection (Promega) assays, following the respective manufacturer's recommendations with suitable modification. Enzyme-Linked Immunosorbent Assay (ELISA) and Immunoblotting. Cells were maintained overnight in the culture media described above. […] Following the treatment, cell lysates and supernatants were collected and subjected to HE4 assay (Human HE4 Quantikine ELISA Kit, R&D Systems). The amount of HE4 in supernatant was normalized to the protein concentration of matching cell lysate. The levels of HER2 were determined by Human Total ErbB2/Her2 DuoSet IC ELISA (R&D systems. Wester blot analysis was conducted using the protocol previously published (see Kim, K. K. et al. Tetrathiomolybdate inhibits mitochondrial complex IV and mediates degradation of hypoxia-inducible factor-1alpha in cancer cells. Sci. Rep. 5, 14296, 2015). Data Acquisition and Statistical Analysis. Gene expression profiling of septins, comparing microdissected normal ovarian stroma (N=8) against that of tumor stroma samples (N=31) from high grade serous ovarian cancer patients, was obtained from Mixed Ovarian Cancer (CAFs)-Wong-77-u133p2 data-set through ‘R2: Genomics Analysis and Visualization Platform (http://r2/am/n1). Mean values with SD were plotted and compared using Student t-test (two tail, unpaired heteroscedastic t-test, significant difference when p<0.01). The prognostic assessment of septin-2 amongst different cancers or septins in endometrial cancer was conducted using TCGA data acquired through Human Protein Atlas (http://www.proteinatlas.org) (see Uhlen, M. et al. Towards a knowledge-based Human Protein Atlas. Nat. Biotechnol. 28, 1248-1250, 2010). Survival curves between septin high and low population and their statistical significance were analyzed using GraphPad Prism software (Mantel-Cox test). […] Structural Modification of FCF. […]

[3] = system: ECC-1 cells; experiment: BrdU cell proliferation assay; type: cell-based; conditions: ECC-1, 48 hours
Procedure: (§1) Cell lines, Culture, and Reagents. Cells were maintained in either DMEM (SKOV-3, KLE, OVCAR-3, OVCAR8-C5 and IGROV-1) or RPMI-1640 (ECC-1 and HCH-1), supplemented with 10% fetal calf serum (or 20% for OVCAR-3), penicillin (100 units/mL), and streptomycin (100 μg/mL) at 37° C. with 5% CO2 in a humidified incubator. Antibodies were purchased from Abcam (septin-2; ab179436) and Cell Signaling Technology; ERK (9102), p-ERK (4370), -actin (3700), u-Tubulin (2144), EGFR (4267) and HER2 (4290). FCF was purchased from Abcam. All other chemicals were from Sigma Aldrich. Synthesis of Derivaties. […] The reaction was monitored using thin-layer chromatography plates with DCM-MeOH or pure ethyl acetate as eluent. Spots were monitored in a UV chamber. The reaction mixture, upon completion of the reaction, was poured into wet ice mixture and triturated, then the separated solid was filtered by vacuum. The product was washed with hexane, followed by diethyl ether, and was dried under vacuum. The compounds were characterized by spectrophotometric techniques. Quantitative Real-Time PCR. The indicated cell lines were transfected with siRNA targeting septin-2 or non-targeting control siRNA (Santa Cruz Biotechnology: sc-37007 or sc-40936) using Lipofectamine 3000 (Invitrogen). […] Quantitative real-time PCR was conducted using QuantStudio 12 K Flex Real-Time PCR System (ABI) and the Taqman Gene Expression Assay (ABI) consisting of the FAM-labeled probes as follows: SEPT2 (Hs01565417_ml); WFDC2 (Hs00899484_ml); TBP (Hs00427620_ml) or B2M (Hs00187842_ml), which was used as reference for normalization. […] Cell viability, proliferation, and cellular apoptosis were measured using the MTS (Promega), BrdU cell proliferation (Cell Signaling Technology), and Caspase-Glo 3/7 apoptosis detection (Promega) assays, following the respective manufacturer's recommendations with suitable modification. […] Survival curves between septin high and low population and their statistical significance were analyzed using GraphPad Prism software (Mantel-Cox test). […]

[4] = system: septin-9; experiment: Confocal analysis of septin-9 filament structure; type: cell-based
[5] = system: JIMT1 xenograft tumors; experiment: JIMT1 xenograft tumor growth; type: in vivo, NSG mice; conditions: 25 mg/kg IP, 28 days
[6] = system: ECC-1 cells; experiment: Caspase-3/7 activity apoptosis assay; type: cell-based; conditions: ECC-1, 33 μM, 48 hours
Procedure: Cell lines, Culture, and Reagents. Cells were maintained in either DMEM (SKOV-3, KLE, OVCAR-3, OVCAR8-C5 and IGROV-1) or RPMI-1640 (ECC-1 and HCH-1), supplemented with 10% fetal calf serum (or 20% for OVCAR-3), penicillin (100 units/mL), and streptomycin (100 μg/mL) at 37° C. with 5% CO2 in a humidified incubator. Antibodies were purchased from Abcam (septin-2; ab179436) and Cell Signaling Technology; ERK (9102), p-ERK (4370), -actin (3700), u-Tubulin (2144), EGFR (4267) and HER2 (4290). FCF was purchased from Abcam. All other chemicals were from Sigma Aldrich. Synthesis of Derivaties. […] The reaction was monitored using thin-layer chromatography plates with DCM-MeOH or pure ethyl acetate as eluent. Spots were monitored in a UV chamber. […] Quantitative Real-Time PCR. […] Quantitative real-time PCR was conducted using QuantStudio 12 K Flex Real-Time PCR System (ABI) and the Taqman Gene Expression Assay (ABI) consisting of the FAM-labeled probes as follows: SEPT2 (Hs01565417_ml); WFDC2 (Hs00899484_ml); TBP (Hs00427620_ml) or B2M (Hs00187842_ml), which was used as reference for normalization. […] Cell viability, proliferation, and cellular apoptosis were measured using the MTS (Promega), BrdU cell proliferation (Cell Signaling Technology), and Caspase-Glo 3/7 apoptosis detection (Promega) assays, following the respective manufacturer's recommendations with suitable modification. […]

[7] = system: JIMT-1 cells; experiment: Cell cycle analysis (PI, flow cytometry), JIMT-1; type: cell-based; conditions: JIMT-1, 3 μM
Procedure: For cell cycle analysis, BXPC-3 and PANC-1 and JIMT-1 cells (100,000/well) were seeded overnight in a 6 well dishes and allowed to adhere overnight. Media was replaced with fresh complete medium supplemented with DMSO or UR214-9 (100 nM and 3 μM) and cells were incubated for 72 hours. The media containing the drugs was removed and cells were washed twice with PBS and trypsinized gently. The cells were collected in 15 mL tubes, complete DMEM media was added to block trypsin and cells were centrifuged. The supernatants were removed and cells were gently treated with 70% cold-EtOH for 30 minutes. The fixed cells were centrifuged and the pellets obtained were collected in flow cytometry tubes and stained with preformulated PI/RNase solution (Cell Signaling Technology, catalog number: 4087s) for 30 minutes. The PI content was analyzed using a flow cytometer. Data was processed using Flowjo software.

[8] = system: ECC-1 cells; experiment: MTS cell viability, ECC-1; type: cell-based; conditions: ECC-1, 48 hours
Procedure: as §1

[9] = system: septin-6; experiment: Immunoblot of septin-6 expression; type: cell-based; conditions: 48 hours
[10] = system: pSTAT-3; experiment: Immunoblot of phosphorylated STAT-3; type: cell-based
[11] = MDA-MB-231, JIMT-1 and MCF-7 cells, 10 and 30 μM, 24 hours

| SMILES | HER2 expression [1, 11] | HER2 expression ([1]; PANC-1 (HER2+), 0.1, 1.0 and 10 μM, 72 hours) | viability of tumor cells, dose-dependent (FIG. 2E) ([2]; 72 hours, MTS) | proliferation in multiple endometrial and ovarian cancer cells ([2]; at considerably lower doses than FCF) | concentration inhibiting proliferation ([3]; BrdU (FIG. 2B)) | septin-9 filament structures ([4]; PANC-1 and JIMT-1 cells) | septin-9 structure ([4]; SKOV-3, 1 μM, 48 hours) | xenograft tumor growth (tumor volume and weight) [5] | apoptosis (caspase-3/7 activity) [6] | cell cycle distribution [7] | concentration inhibiting viability ([8]; MTS (FIG. 2B)) | septin-6 protein expression levels (western blot) ([9]; MDA-MB-231, JIMT-1 and MCF-7 cells, 10 and 30 μM) | septin-6 expression (immunoblot) ([9]; PANC-1, 1.0 and 10.0 μM) | phosphorylation of STAT-3 [10, 11] | phosphorylated STAT-3 ([10]; PANC-1) | cell viability ([2]; FCF 0, 100, 300 μM, 24 or 72 hours, time- and dose-dependent (FIG. 1)) | proliferation ([3]; BrdU, lower dose ranges) | viability ([8]; MTS, lower dose ranges) |
| --- | --- | --- | --- | --- | --- | --- | --- | --- | --- | --- | --- | --- | --- | --- | --- | --- | --- | --- |
| O=C(Nc1cc(Cl)nc(Cl)c1)Nc1cccc(SC(F)(F)F)c1F [UR214-9] | reduced HER2 expression | dose-dependent decrease in HER2 expression | potent activity across most cell lines | blocked proliferation | ~4 µM and 4 to 5 µM | clear disarrangement in septin-9 filament structures | reorganization of septin-9 | significant growth control | much more effective | G1 phase arrest | around 33 μM | does not alter the protein expression levels | unaffected | reduced phosphorylation of STAT-3 | reduced phosphorylated STAT-3 | – | – | – |
| O=C(Nc1ccccc1)Nc1ccnc(Cl)c1 [FCF, N-(2-chloro-4-pyridyl)-N′-phenylurea, reference compound] | – | – | – | – | – | – | – | – | – | – | – | – | – | – | – | reduced the viability | lacked activity | lacked activity |
